# Results reported in patent US10208033B2, “β-carboline, dihydro-β-carboline and tetrahydro-β-carboline alkaloid derivatives and preparation methods same and use in aspects of preventing and treating plant viruses, fungicides and insecticides” (NANKAI UNIVERSITY, priority 2013, dated 2019).
# Where two headings read alike, the source gives them in different places.
# What was measured:
# Rhizoctonia solani = assay: Fungicidal (bactericidal) activity in vitro, PDA colony diameter; type: cell-based; settings: 50 mg/kg; for inhibition of growth at 50 mg/kg: Rhizoctonia solani, 96 h
# Fusarium graminearumt = assay: microbe, parasite or virus in culture; type: cell-based; settings: for inhibition of growth at 50 mg/kg: Fusarium, 96 h, read-out: Bactericidal activity (%) Fusarium graminearumt; for Bactericidal activity (%) Fusarium graminearumt: 50 mg/kg
# Phytophthora capsici = assay: Fungicidal (bactericidal) activity in vitro, PDA colony diameter; type: cell-based; settings: 50 mg/kg; for inhibition of growth at 50 mg/kg: Phytophthora capsici, 96 h
# cucumber fusarium wilt = assay: as above; type: cell-based; settings: 50 mg/kg; for inhibition of growth at 50 mg/kg: Fusarium, 96 h
# Rhizoctonia cereali = assay: as above; type: cell-based; settings: 50 mg/kg; for inhibition of growth at 50 mg/kg: Rhizoctonia, 96 h
# Fusarium fujikuroi = assay: as above; type: cell-based; settings: 50 mg/kg; for inhibition of growth at 50 mg/kg: Fusarium fujikuroi, 96 h
# potato late blight = assay: microbe, parasite or virus in culture; type: cell-based; settings: for inhibition of growth at 50 mg/kg: Phytophthora infestans, 96 h, read-out: Bactericidal activity (%) potato late blight
# Botrytis cinerea = assay: Fungicidal (bactericidal) activity in vitro, PDA colony diameter; type: cell-based; settings: for inhibition of growth at 50 mg/kg: Botrytis cinerea, 96 h
# Macrophoma kawatsukai = assay: as above; type: cell-based; settings: 50 mg/kg
# [1] = tested on: Colletotrichum orbiculare; assay: as above; type: cell-based; settings: 50 mg/kg; for inhibition of growth at 50 mg/kg: Colletotrichum orbiculare, 96 h
# Cercospora arachidicola = assay: as above; type: cell-based; settings: 50 mg/kg; for inhibition of growth at 50 mg/kg: Mycosphaerella arachidis, 96 h
# Alternaria solani = assay: as above; type: cell-based; settings: 50 mg/kg; for inhibition of growth at 50 mg/kg: Alternaria solani, 96 h
# Bipolaria maydis = assay: organism not typed; type: cell-based; settings: for inhibition at 50 mg/kg: read-out: Bactericidal activity (%) Bipolaria maydis; for Bactericidal activity (%) Bipolaria maydis: 50 mg/kg
# Sclerotinia scleotiorum = assay: Fungicidal (bactericidal) activity in vitro, PDA colony diameter; type: cell-based; settings: 50 mg/kg; for inhibition of growth at 50 mg/kg: Sclerotinia, 96 h
# [2] = tested on: tobacco mosaic virus (TMV); assay: Anti-TMV in vitro effect (half-leaf soaking); type: cell-based, tobacco mosaic virus (host Nicotiana tabacum L.cv.Xanthi NN)
# [3] = tested on: tobacco mosaic virus (TMV); assay: Anti-TMV in vivo protective effect; set-up: species or system tobacco mosaic virus (host Nicotiana tabacum L.cv.Xanthi NN)
# armyworms = type: in vivo; settings: concentration 600 mg/kg
# cotton bollworms = assay: whole plant or invertebrate
# Method: Experimental method of cotton bollworms: feed and drug mixing method: measure 3 mL of prepared solution and add it to about 27 g of newly prepared feed, thereby obtaining needed concentration through dilution by 10 times.
# [4] = tested on: tobacco mosaic virus (TMV); assay: Anti-TMV in vivo therapeutic effect; set-up: species or system tobacco mosaic virus (host Nicotiana tabacum L.cv.Xanthi NN)
# [5] = tested on: tobacco mosaic virus (TMV); assay: Anti-TMV in vivo inactivation; set-up: species or system tobacco mosaic virus (host Nicotiana tabacum L.cv.Xanthi NN)
# mosquito larvae = assay: whole plant or invertebrate; settings: 24 h
# Method: Experimental method of mosquito larvae: culex pipiens pallens, a normal colony raised indoors. Weigh about 5 mg of the compound for test, put it in a penicillin vial, add 5 mL of acetone (or an appropriate solvent), and shake and dissolve it to obtain a 1000 ppm mother solution. Pipette 0.5 mL of the mother solution, add it to a 100 mL beaker filled with 89.9 mL of water, select 10 mosquito larvae at the beginning of the fourth instar, and pour them to a beaker together with 10 mL of feeding solution. The concentration of the drug solution is 5 ppm. […] Use an aqueous solution containing 0.5 mL of test solvent as a blank.
smiles,measurement,setting,value
COC(=O)Nc1nc2ccccc2[nH]1 [Carbendazim],inhibition of growth at 50 mg/kg,Rhizoctonia solani,100%
same,inhibition of growth at 50 mg/kg,Fusarium graminearumt,100%
same,inhibition of growth at 50 mg/kg,Phytophthora capsici,< 50%
same,inhibition of growth at 50 mg/kg,cucumber fusarium wilt,< 50%
same,inhibition of growth at 50 mg/kg,Rhizoctonia cereali,100%
same,inhibition of growth at 50 mg/kg,Fusarium fujikuroi,< 50%
same,inhibition of growth at 50 mg/kg,potato late blight,100%
same,inhibition of growth at 50 mg/kg,Botrytis cinerea; 50 mg/kg,< 50%
same,inhibition at 50 mg/kg,Macrophoma kawatsukai,< 50%
same,inhibition of growth at 50 mg/kg,[1],100%
same,inhibition of growth at 50 mg/kg,Cercospora arachidicola,< 50%
same,inhibition of growth at 50 mg/kg,Alternaria solani,< 50%
same,inhibition at 50 mg/kg,Bipolaria maydis,100%
same,inhibition of growth at 50 mg/kg,Sclerotinia scleotiorum,100%
N#Cc1c(Cl)c(Cl)c(Cl)c(C#N)c1Cl [Chlorothalonil],inhibition of growth at 50 mg/kg,Rhizoctonia solani,100%
same,inhibition of growth at 50 mg/kg,Fusarium graminearumt,< 50%
same,inhibition of growth at 50 mg/kg,Phytophthora capsici,100%
same,inhibition of growth at 50 mg/kg,cucumber fusarium wilt,100%
same,inhibition of growth at 50 mg/kg,Rhizoctonia cereali,100%
same,inhibition of growth at 50 mg/kg,Fusarium fujikuroi,100%
same,inhibition of growth at 50 mg/kg,potato late blight,86.4%
same,inhibition of growth at 50 mg/kg,Botrytis cinerea; 50 mg/kg,100%
same,inhibition at 50 mg/kg,Macrophoma kawatsukai,100%
same,inhibition of growth at 50 mg/kg,[1],91.3%
same,inhibition of growth at 50 mg/kg,Cercospora arachidicola,73.3%
same,inhibition of growth at 50 mg/kg,Alternaria solani,73.3%
same,inhibition at 50 mg/kg,Bipolaria maydis,91.3%
same,inhibition of growth at 50 mg/kg,Sclerotinia scleotiorum,< 50%
"Cc1nccc2c1[nH]c1cc(OC(=O)N(C)C)ccc12 [Ia-6, dimethylcarbamate (1-methylpyridino [3,4-b]indol-7)-ester]",Bactericidal activity (%) Rhizoctonia solani,Rhizoctonia solani,46.1%
same,Bactericidal activity (%) Fusarium graminearumt,Fusarium graminearumt,38.1%
same,Bactericidal activity (%) Phytophthora capsici,Phytophthora capsici,9.4%
same,Bactericidal activity (%) Cucumber fusarium wilt,cucumber fusarium wilt,23.1%
same,Bactericidal activity (%) Rhizoctonia cereali,Rhizoctonia cereali,36.8%
same,Bactericidal activity (%) Fusarium fujikuroi,Fusarium fujikuroi,21.4%
same,Bactericidal activity (%) potato late blight,potato late blight,9.1%
same,Relative inhibition rate (%) In vitro activity,[2]; treatment dose 100 μg/mL,0%
same,Relative inhibition rate (%) In vitro activity,[2]; treatment dose 500 μg/mL,12.6%
same,Bactericidal activity (%) Botrytis cinerea,Botrytis cinerea; 50 mg/kg,12.1%
same,Corn borer Mortality (%),corn borers; concentration 600 mg/kg,35%
same,Relative inhibition rate (%) In vivo protection,[3]; treatment dose 100 μg/mL,0%
same,Relative inhibition rate (%) In vivo protection,[3]; treatment dose 500 μg/mL,18.7%
same,Bactericidal activity (%) Macrophoma kawatsukai,Macrophoma kawatsukai,26.2%
same,Bactericidal activity (%) Colletotrichum orbiculare,[1],35.7%
same,Armyworm Mortality (%),armyworms,45%
same,Bactericidal activity (%) Cercospora arachidicola,Cercospora arachidicola,53.9%
same,Cotton bollworm Mortality (%),cotton bollworms; concentration 600 mg/kg,20%
same,Relative inhibition rate (%) In vivo therapy,[4]; treatment dose 100 μg/mL,0%
same,Relative inhibition rate (%) In vivo therapy,[4]; treatment dose 500 μg/mL,15.6%
same,Relative inhibition rate (%) In vivo inactivation,[5]; treatment dose 100 μg/mL,0%
same,Relative inhibition rate (%) In vivo inactivation,[5]; treatment dose 500 μg/mL,12%
same,Mosquito larvae Mortality (%),mosquito larvae; concentration 5 mg/kg,20%
same,Mosquito larvae Mortality (%),mosquito larvae; concentration 10 mg/kg,100%
same,Bactericidal activity (%) Alternaria solani,Alternaria solani,15.8%
same,Bactericidal activity (%) Bipolaria maydis,Bipolaria maydis,27.3%
same,Bactericidal activity (%) Sclerotinia scleotiorum,Sclerotinia scleotiorum,7.8%
"O=C(O)[C@@H]1Cc2c([nH]c3ccccc23)[C@H](c2cccnc2)N1 [Ib-6, (1S, 3S)-1-(pyridine-3)-2,3,4,9-tetrahydropyridino [3,4-b] indol-3-formic acid]",Bactericidal activity (%) Rhizoctonia solani,Rhizoctonia solani,32.9%
same,Bactericidal activity (%) Fusarium graminearumt,Fusarium graminearumt,31.0%
same,Bactericidal activity (%) Phytophthora capsici,Phytophthora capsici,9.4%
same,Bactericidal activity (%) Cucumber fusarium wilt,cucumber fusarium wilt,26.9%
same,Bactericidal activity (%) Rhizoctonia cereali,Rhizoctonia cereali,63.2%
same,Bactericidal activity (%) Fusarium fujikuroi,Fusarium fujikuroi,14.3%
same,Bactericidal activity (%) potato late blight,potato late blight,27.3%
same,Relative inhibition rate (%) In vitro activity,[2]; treatment dose 100 μg/mL,0%
same,Relative inhibition rate (%) In vitro activity,[2]; treatment dose 500 μg/mL,25%
same,Bactericidal activity (%) Botrytis cinerea,Botrytis cinerea,27.3%
same,Corn borer Mortality (%),corn borers; in vivo,40%
same,Relative inhibition rate (%) In vivo protection,[3]; treatment dose 100 μg/mL,0%
same,Relative inhibition rate (%) In vivo protection,[3]; treatment dose 500 μg/mL,24.8%
same,Bactericidal activity (%) Macrophoma kawatsukai,Macrophoma kawatsukai,61.9%
same,Bactericidal activity (%) Colletotrichum orbiculare,[1],32.1%
same,Armyworm Mortality (%),armyworms,45%
same,Bactericidal activity (%) Cercospora arachidicola,Cercospora arachidicola,84.6%
same,Cotton bollworm Mortality (%),cotton bollworms; in vivo,20%
same,Relative inhibition rate (%) In vivo therapy,[4]; treatment dose 100 μg/mL,0%
same,Relative inhibition rate (%) In vivo therapy,[4]; treatment dose 500 μg/mL,21.4%
same,Relative inhibition rate (%) In vivo inactivation,[5]; treatment dose 100 μg/mL,0%
same,Relative inhibition rate (%) In vivo inactivation,[5]; treatment dose 500 μg/mL,17.5%
same,Bactericidal activity (%) Alternaria solani,Alternaria solani,26.3%
same,Bactericidal activity (%) Bipolaria maydis,Bipolaria maydis,36.4%
same,Bactericidal activity (%) Sclerotinia scleotiorum,Sclerotinia scleotiorum,29.4%
